Data taken from patent US20230286956A1 (DUKSUNG WOMEN'S UNIVERSITY INDUSTRY-ACADEMIC COOPERATION …, priority 2020, published 2023).

What was measured:
[1] = test system: wild-type red mold strain GZ3639; experiment: Inhibition of spore germination / reactive oxygen species generation through NOX enzyme inhibition in red mold; assay type: cell-based; conditions: 24 h, read-out: IC50 (µM), compound concentration at which the spore germination inhibition rate was 50%
Experimental: When NADPH oxidase (NOX), which is involved in the generation of reactive oxygen species in red mold, is inhibited, normal mycelial growth is inhibited, abnormal form of monocyclic conidia is formed, and germination is inhibited. The abnormal phenotype caused by the reduction of reactive oxygen species in red mold can be easily observed under an optical microscope. Through this, the ability to inhibit generation of reactive oxygen species through NOX inhibition was evaluated.
Specifically, for the evaluation of compound activity, 0.1 mM of the compound was added to a minimum medium (MM20) spore suspension diluted to ⅕. Spores ([…]) of wild-type red mold strain GZ3639 were inoculated into the medium and cultured at 25° C. for 24 h, followed by microscopic observation. Compounds having a germination inhibition rate and microcycle conidiation to be 50% or more of those in normal germination were selected, and their activities were evaluated at concentrations of 50 µM, 25 µM, and 10 µM. At this time, the activity of substances having a germination inhibition rate of 95% at 10 µM was further evaluated at concentrations of 5 µM, 1 µM, 0.5 µM, and 0.1 µM. Based on the result of this evaluation, the compound concentration (inhibitory concentration 50%, IC50) at which the spore germination inhibition rate was 50% was determined.

in vivo = experiment: in vivo; design: species or system SD rats; conditions: SD, rat, po
Experimental: The bioavailability (BA) and pharmacokinetic properties of the compounds of the present invention were evaluated in an animal model. The compounds were administered to 8-week-old SD rats (300 to 350 g) at a dose of 2 to 5 mg/kg through oral and intravenous administration routes. After administration, blood was collected at regular time intervals and the time course of blood concentration was analyzed.

[2] = test system: substantia nigra dopaminergic neurons; experiment: Inhibition of dopaminergic nerve cell death in MPTP animal model of Parkinson's disease (tyrosine hydroxylase immunostaining); assay type: in vivo, C57B16/J mice; conditions: Evaluations 3 and 4: intraperitoneal 5 mg/kg, 1 week before and after MPTP
Experimental: The dopaminergic neuronal cell protecting effect of the compound of the present invention was evaluated in an animal model of Parkinson’s disease. The animal model used was 7-week-old C57B16/J mice (23 to 25 g), to which MPTP (15 mg/kg) was administered 4 times at 1.5 hour intervals. For 1 to 2 days after administration, behavior was noticeably slowed and gradually recovered. In 1 week after MPTP administration, behavior was almost normalized to a level similar to that of normal mice.
In order to evaluate the efficacy of the compounds of the present invention, Compounds 1aaa (Compound 1), lace (Compound 27), 1ahe (Compound 44) and 1aje (Compound 62) were each administered at a dose of 5 mg/kg for 1 week, then MPTP (15 mg/kg x 4 times) was injected. These compounds were additionally administered for 1 week, and then dopamine innervation in the substantia nigra region was analyzed through immunostaining.
Specifically, selegiline, 1aaa, lace, 1ahe, 1aje, and apocynin were administered at a dose of 5 mg/kg for 7 days, then MPTP (15 mg/kg x 4 times) was administered to induce damage to dopaminergic neurons. After 7 days of additional administration of the compounds at the same dose, the animals were sacrificed. Immunostaining was performed using tyrosine hydroxylase antibody to measure the survival rate of substantia nigra dopaminergic neurons. After immunostaining, the number of surviving dopaminergic neurons was analyzed. The results are illustrated in FIG. 8.
In order to evaluate the efficacy of the compounds of the present invention, Compounds 1abv (Compound 22), 1abw (Compound 23), and 1ahs (Compound 52) were each intraperitoneally administered at a dose of 5 mg/kg for 1 week or orally administered at a dose of 50 mg/kg, then MPTP (15 mg/kg x 4 times) was injected. These compounds were additionally administered for 1 week, and then dopamine innervation in the substantia nigra region was analyzed through immunostaining. The results are illustrated in FIG. 9.
(§1) In order to evaluate the dopaminergic neuroprotective effect of the compounds of the present invention, Compounds 1aja (Compound 59) and 1abk (Compound 17) were each intraperitoneally administered at a dose of 5 mg/kg for 1 week, then MPTP (15 mg/kg x 4 times) was injected. These compounds were additionally administered for 1 week. After immunostaining using brain slices from each group, surviving dopaminergic neurons were photographed under a microscope and analyzed. The results are illustrated in FIG. 10.
as §1, with “1ajs” for “1aja”, “63), 1ajy (Compound 67),” for “59)”, “1aqj” for “1abk”, “85)” for “17)”, “11.” for “10.”

[3] = Single acute toxicity evaluation 2 (2000 mg/kg oral); assay type: in vivo, ICR mice
Experimental: Acute toxicity properties after single administration of the compounds of the present invention were evaluated in an animal model.

CN1C(=[Se])N(c2ccccc2)C(=O)/C1=C\c1ccc(O)cc1O [Compound 1, 5-(2,4-dihydroxybenzylidene)-1-methyl-3-phenyl-2-selenoxoimidazolidine-4-on]
IC50 [1]: 20 µM
bioavailability (in vivo): 13%

Cc1ccc(N2C(=O)C(=Cc3ccc(N4CCCC4)cc3)N(C)C2=[Se])cc1 [Compound 1abk, 1-methyl-5-(4-pyrrolidine-1-yl)benzylidene-2-selenoxo-3-(4-tolyl)imidazolidine-4-on]
survival rate of dopaminergic neurons, of that in the control group [2]: 66%

CN1C(=[Se])N(CCc2ccccc2)C(=O)C1=Cc1ccc(N2CCOCC2)cc1 [Compound 1ahs]
change in body weight ([3]; day 0): 100
change in body weight ([3]; day 2): 97.6
change in body weight ([3]; day 4): 100.0
change in body weight ([3]; day 8): 103.8
change in body weight ([3]; day 10): 104.5
change in body weight ([3]; day 14): 105.0

CCCCCCN1C(=O)C(=Cc2ccc(O)cc2O)N(C)C1=[Se] [Compound 1aja]
survival rate of dopaminergic neurons, of that in the control group [2]: 76%
change in body weight ([3]; day 0): 100
change in body weight ([3]; day 2): 95.6
change in body weight ([3]; day 4): 102.8
change in body weight ([3]; day 8): 105.8
change in body weight ([3]; day 10): 107.8
change in body weight ([3]; day 14): 107.6

CN1C(=[Se])N(CCCN2CCOCC2)C(=O)C1=Cc1ccc(Cl)cc1 [Compound 1aqj]
survival rate of dopaminergic neurons, of that in the control group [2]: 75.1%
change in body weight ([3]; day 0): 100
change in body weight ([3]; day 2): 94.6
change in body weight ([3]; day 4): 99.8
change in body weight ([3]; day 8): 104.8
change in body weight ([3]; day 10): 105.9
change in body weight ([3]; day 14): 106.6

Cc1ccc(N2C(=O)/C(=C\c3ccc(N4CCCCC4)cc3)N(C)C2=[Se])cc1 [Compound 15, 1-methyl-5-(4-piperidine-1-yl)benzylidene-3-(4-tolyl)-2-selenoxoimidazolidine-4-on]
IC50 [1]: 11 µM
bioavailability (in vivo): 11%

Cc1ccc(N2C(=O)/C(=C\c3ccc(N4CCN(CCO)CC4)cc3)N(C)C2=[Se])cc1 [Compound 21, 5-(4-(4-(2-hydroxyethyl)piperazine-1-yl)benzylidene)-1-methyl-2-selenoxo-3-(4-tolyl)imidazoline-4-on]
bioavailability (in vivo): 11%

Cc1ccc(N2C(=O)/C(=C\c3ccc(NCCOCCO)cc3)N(C)C2=[Se])cc1 [Compound 22, 5-(4-((2-(2-hydroxyethoxy)ethyl)amino)benzylidene)-1-methyl-2-selenoxo-3-(4-tolyl)imidazoline-4-on]
IC50 [1]: 2.3 µM
bioavailability (in vivo): 55%

CCc1ccc(N2C(=O)/C(=C\c3cc(O)cc(O)c3)N(C)C2=[Se])cc1 [Compound 27, 5-(3,5-dihydroxybenzylidene)-3-(4-ethylphenyl)-1-methyl-2-selenoxoimidazolidine-4-on]
IC50 [1]: 9 µM
bioavailability (in vivo): 31%

CN1C(=[Se])N(CCc2ccccc2)C(=O)/C1=C\c1cc(O)cc(O)c1 [Compound 44]
IC50 [1]: 1 µM
bioavailability (in vivo): 73%

CCCCCCN1C(=O)/C(=C\c2ccc(O)cc2O)N(C)C1=[Se] [Compound 59, 5-(2,4-dihydroxybenzylidene)-3-hexyl-1-methyl-2-selenoxoimidazolidine-4-on]
IC50 [1]: 0.68 µM
bioavailability (in vivo): 23%

CCCCCN1C(=O)/C(=C\c2ccc(O)cc2O)N(C)C1=[Se] [Compound 93, 5-(2,4-dihydroxybenzylidene)-1-methyl-3-pentyl-2-selenoxoimidazolidine-4-on]
IC50 [1]: 2.9 µM

CCN1C(=[Se])N(c2ccccc2)C(=O)/C1=C\c1ccc(O)cc1O [Compound 95, 5-(2,4-dihydroxybenzylidene)-1-ethyl-3-phenyl-2-selenoxoimidazolidine-4-on]
IC50 [1]: 22 µM

CCN1C(=[Se])N(c2ccccc2)C(=O)/C1=C\c1cccc(O)c1O [Compound 96, 5-(2,3-dihydroxybenzylidene)-1-ethyl-3-phenyl-2-selenoxoimidazolidine-4-on]
IC50 [1]: 44 µM

CCc1ccc(N2C(=O)/C(=C\c3ccc(Br)cc3)N(CC)C2=[Se])cc1 [Compound 101, 5-(4-bromobenzylidene)-1-ethyl-3-(4-ethylphenyl)-2-selenoxoimidazolidine-4-on]
IC50 [1]: 45 µM

CCc1ccc(N2C(=O)/C(=C\c3ccc(N4CCCC4)cc3)N(CC)C2=[Se])cc1 [Compound 102, 1-ethyl-3-(4-ethylphenyl)-5-(4-pyrrolidine-1-yl)benzylidene-2-selenoxoimidazolidine-4-on]
IC50 [1]: 40 µM

O=C1/C(=C\c2cccc(O)c2O)N(Cc2ccccc2)C(=[Se])N1c1ccccc1 [Compound 104, 1-benzyl-5-(2,3-dihydroxybenzylidene)-3-phenyl-2-selenoxoimidazolidine-4-on]
IC50 [1]: 23 µM

O=C1/C(=C\c2ccc(O)c(O)c2)N(Cc2ccccc2)C(=[Se])N1c1ccccc1 [Compound 106, 1-benzyl-5-(3,4-dihydroxybenzylidene)-3-phenyl-2-selenoxoimidazolidine-4-on]
IC50 [1]: 34 µM

O=C1/C(=C\c2cc(O)cc(O)c2)N(Cc2ccccc2)C(=[Se])N1c1ccccc1 [Compound 107, 1-benzyl-5-(3,5-dihydroxybenzylidene)-3-phenyl-2-selenoxoimidazolidine-4-on]
IC50 [1]: 23 µM

CCc1ccc(N2C(=O)/C(=C\c3ccc(O)cc3O)N(Cc3ccccc3)C2=[Se])cc1 [Compound 108, 1-benzyl-5-(2,4-dihydroxybenzylidene)-3-(4-ethylphenyl)-2-selenoxoimidazolidine-4-on]
IC50 [1]: 22 µM

CCc1ccc(N2C(=O)/C(=C\c3ccc(O)c(O)c3)N(Cc3ccccc3)C2=[Se])cc1 [Compound 109, 1-benzyl-5-(3,4-dihydroxybenzylidene)-3-(4-ethylphenyl)-2-selenoxoimidazolidine-4-on]
IC50 [1]: 29 µM

CCc1ccc(N2C(=O)/C(=C\c3cc(O)cc(O)c3)N(Cc3ccccc3)C2=[Se])cc1 [Compound 110, 1-benzyl-5-(3,5-dihydroxybenzylidene)-3-(4-ethylphenyl)-2-selenoxoimidazolidine-4-on]
IC50 [1]: 23 µM

O=C1/C(=C\c2cccc(O)c2O)N(Cc2ccccc2)C(=[Se])N1c1ccc(Cl)cc1 [Compound 111, 1-benzyl-3-(4-chlorophenyl)-5-(2,3-dihydroxybenzylidene)-2-selenoxoimidazolidine-4-on]
IC50 [1]: 26 µM

O=C1/C(=C\c2ccc(O)c(O)c2)N(Cc2ccccc2)C(=[Se])N1c1ccc(Cl)cc1 [Compound 112, 1-benzyl-3-(4-chlorophenyl)-5-(3,4-dihydroxybenzylidene)-2-selenoxoimidazolidine-4-on]
IC50 [1]: 31 µM
